Measurements published in patent EP0048954A2, “Beta-lactam compounds, process for the preparation thereof and intermediate products for the preparation thereof” (SAGAMI CHEMICAL RESEARCH CENTER, priority 1980, dated 1982).
≈ marks a conversion by molar mass, not a printed value. Like-named read-outs stand apart in the source and are kept apart here.

Experiments:
Test in all cases: Antibacterial activity, minimum inhibition concentration (method of The Chemotherapy Association, Japan)
Type in all cases: cell-based
Proteus rettgeri NIH-96 = details: Providencia rettgeri
From the text: (§1) The abbreviations A to P will be used in the following Tables 2 to 8.
(§2) Test results are shown in terms of the minimum inhibition concentration (µg/mℓ.) in the following Tables 2 to 8.

Proteus vulgaris OX-19 = details: Proteus vulgaris
From the text: as §1, §2

Proteus morgani Kono = details: read-out: minimum inhibition concentration
Protocol: (§3) Antibacterial activities of the compounds according to this invention, which had been prepared in the preceding Examples, were measured according to the method prescribed by The Committee of Amendment of "The method for measurement of the minimum inhibition concentration", The Chemotherapy Association, Japan (See Chemotherapy, Vol. 22, No. 6, pp. 1126 - 1128 (1974) and Vol. 29, No. 1, pp. 76 - 79 (1981)).
as §1, §2

[1] = system: Citrobactor freundii NIH-10018 -68; details: read-out: minimum inhibition concentration
Protocol: as §3, §1, §2

[2] = system: Bacillus subtilis ATCC 6633; details: for MIC: Bacillus subtilis
Protocol: as §3, §1, §2

[3] = system: Staphylococcus aureus 6538-P
Protocol: as §3, §1, §2

Klebsiella pneumoniae = details: Klebsiella pneumoniae
Protocol: as §3, §1, §2

Serratia marcescens 1023 = system: Serratia marcescens 1023
Protocol: as §3, §1, §2

Escherichia coli NIHJC-2 = details: Escherichia coli
Protocol: as §3, §1, §2

[4] = system: Enterobactor cloacae NCTC-9394; details: read-out: minimum inhibition concentration
Protocol: as §3, §1, §2

[5] = system: Salmonella typhimurium 3173; details: Salmonella enterica, TYPHIMURIUM
Protocol: as §3, §1, §2

[6] = system: Serratia marcescens IFO-3736; details: Serratia marcescens
Protocol: as §3, §1, §2

[7] = system: Pseudomonas aeruginosa NCTC-10490; details: Pseudomonas aeruginosa
Protocol: as §3, §1, §2

[8] = system: Proteus mirabillis B-30-2 IFO-3849
Protocol: as §3, §1, §2

Escherichia coli NIHJ = details: Escherichia coli, read-out: minimum inhibition concentration
Protocol: as §3, §1, §2

[9] = NIH96, strain I: Proteus rettgeri NIH-96, read-out: minimum inhibition concentration
[10] = OX19, strain H: Proteus vulgaris OX-19, read-out: minimum inhibition concentration
[11] = strain O: Citrobactor freundii NIH-10018 -68
[12] = strain A: Staphylococcus aureus 6538-P, read-out: minimum inhibition concentration
[13] = strain C: Klebsiella pneumoniae, read-out: minimum inhibition concentration
[14] = Serratia marcescens, 1023, strain E: Serratia marcescens 1023, read-out: minimum inhibition concentration
[15] = NIHJC2, strain L: Escherichia coli NIHJC-2, read-out: minimum inhibition concentration
[16] = strain N: Enterobactor cloacae NCTC-9394
[17] = strain D: Salmonella typhimurium 3173, read-out: minimum inhibition concentration
[18] = IFO3736, strain F: Serratia marcescens IFO-3736, read-out: minimum inhibition concentration
[19] = NCTC10490, strain M: Pseudomonas aeruginosa NCTC-10490, read-out: minimum inhibition concentration
[20] = strain G: Proteus mirabillis B-30-2 IFO-3849, read-out: minimum inhibition concentration
[21] = strain K: Escherichia coli NIHJ
[22] = ATCC6633, strain B: Bacillus subtilis ATCC 6633, read-out: minimum inhibition concentration

Row | SMILES | MIC (Proteus rettgeri NIH-96; [9]) [µg/mL] | MIC (Proteus vulgaris OX-19; [10]) [µg/mL] | MIC (Proteus morgani Kono; strain J: Proteus morgani Kono) [µg/mL] | MIC [1, 11] [µg/mL] | MIC [3, 12] [µg/mL] | MIC (Klebsiella pneumoniae; [13]) [µg/mL] | MIC (Serratia marcescens 1023; [14]) [µg/mL] | MIC (Escherichia coli NIHJC-2; [15]) [µg/mL] | MIC [4, 16] [µg/mL] | MIC [5, 17] [µg/mL] | MIC [6, 18] [µg/mL] | MIC [7, 19] [µg/mL] | MIC [8, 20] [µg/mL] | MIC (Escherichia coli NIHJ; [21]) [µg/mL] | MIC [2, 22] [µg/mL] | also measured
1 | Cn1nnnc1SCC1=C(C(=O)O)N2C(=O)C(NC(=O)C(=C(Cl)Cl)c3csc(N)n3)C2SC1 (stereo not drawn) [6-(2), 7-[2-dichloromethylene-2-(2-aminothiazol-4-yl)-acetamido]-3-(l-methyl-lH-tetrazol-5-yl)thiomethyl-3-cephem-4-carboxylic acid] | < 0.025 | 0.1 (≈ 0.182 µM) | 6.25 (≈ 11.4 µM) | 6.25 (≈ 11.4 µM) | 0.78 (≈ 1.42 µM) | 12.5 (≈ 22.8 µM) | 12.5 (≈ 22.8 µM) | 12.5 (≈ 22.8 µM) | 1.56 (≈ 2.84 µM) | 6.25 (≈ 11.4 µM) | 25 (≈ 45.5 µM) | 3.12 (≈ 5.69 µM) | 12.5 (≈ 22.8 µM) | < 0.025 |  | minimum inhibition concentration ([2]; strain B: Bacillus subtilis ATCC 6633): 6.25 µg/mL (≈ 11.4 µM)
2 | CC(=O)OCC1=C(C(=O)O)N2C(=O)C(NC(=O)C(=C(Cl)Cl)c3ccc(Cl)c(Cl)c3)[C@H]2SC1 (stereo partly drawn) [Compound 30, 7-[2-dichloromethylene-2-(3,4-dichlorophenyl)acetamido]-3-acetoxymethyl-3-cephem-4-carboxylic acid] | 6.25 (≈ 11.6 µM) | > 100 | > 100 | > 100 | 100 (≈ 185 µM) | > 100 | 6.25 (≈ 11.6 µM) | > 100 | > 100 | > 100 | > 100 | 100 (≈ 185 µM) | > 100 | 100 (≈ 185 µM) | 0.78 (≈ 1.44 µM) | 
3 | CC(=O)OCC1=C(C(=O)O)N2C(=O)C(NC(=O)C(=C(Cl)Cl)c3ccc(N)cc3)[C@H]2SC1 (stereo partly drawn) [4-(2), 7-[2-dichloromethylene-2-(4-aminophenyl)acetamido]-3-acetoxymethyl-3-cephem-4-carboxylic acid] | 0.2 (≈ 0.411 µM) | 6.25 (≈ 12.9 µM) | > 100 | > 100 | 0.39 (≈ 0.802 µM) | > 100 | 3.12 (≈ 6.43 µM) | > 100 | > 100 | 100 (≈ 206 µM) | > 100 | 12.5 (≈ 25.7 µM) | > 100 | 0.39 (≈ 0.802 µM) | 1.56 (≈ 3.21 µM) | 
4 | Cn1nnnc1SCC1=C(C(=O)O)N2C(=O)C(NC(=O)C(=CCl)c3cccs3)C2SC1 (stereo not drawn) [Compound 34, 7-[2-chloromethylene-2-(2-thienyl)acetamido]-3-(l-methyl-lH-tetrazol-5-yl)thiomethyl-3-cephem-4-carboxylic acid] | 0.05 (≈ 0.1 µM) | 12.5 (≈ 25.1 µM) | 100 (≈ 200 µM) | 100 (≈ 200 µM) | 25 (≈ 50.1 µM) | 100 (≈ 200 µM) | 1.56 (≈ 3.13 µM) | 25 (≈ 50.1 µM) | 12.5 (≈ 25.1 µM) | 12.5 (≈ 25.1 µM) | 100 (≈ 200 µM) | 100 (≈ 200 µM) | 100 (≈ 200 µM) | 1.56 (≈ 3.13 µM) | 0.78 (≈ 1.56 µM) | 
5 | Nc1nc(C(=CCl)C(=O)NC2C(=O)N3C(C(=O)[O-])=C(C[n+]4ccccc4)CSC23)cs1 (stereo not drawn) [Compound 24, 7-[2-chloromethylene-2-(2-aminothiazol-4-yl)acetamido]-3-pyridiniummethyl-3-cephem-4-carboxylic acid betaine] | 0.78 (≈ 1.63 µM) | 3.12 (≈ 6.54 µM) | 25 (≈ 52.3 µM) | 25 (≈ 52.3 µM) | 6.25 (≈ 13.1 µM) | 25 (≈ 52.3 µM) | 25 (≈ 52.3 µM) | 25 (≈ 52.3 µM) | 12.5 (≈ 26.2 µM) | 25 (≈ 52.3 µM) | 50 (≈ 105 µM) | > 100 | 12.5 (≈ 26.2 µM) | 1.56 (≈ 3.26 µM) | 25 (≈ 52.3 µM) | 
6 | Cn1nnnc1SCC1=C(C(=O)O)N2C(=O)C(NC(=O)C(=C(Cl)Cl)c3ccsc3)C2SC1 (stereo not drawn) [Compound 35, 7-[2-dichloromethylene-2-(3-thienyl)acetamido]-3-(l-methyl-lH-tetrazol-5-yl)thiomethyl-3-cephem-4-carboxylic acid] | 0.1 (≈ 0.187 µM) | 25 (≈ 46.9 µM) | > 100 | 100 (≈ 187 µM) | 0.2 (≈ 0.375 µM) | 50 (≈ 93.7 µM) | 3.12 (≈ 5.86 µM) | 50 (≈ 93.7 µM) | 12.5 (≈ 23.4 µM) | 25 (≈ 46.9 µM) | 100 (≈ 187 µM) | 12.5 (≈ 23.4 µM) | 100 (≈ 187 µM) | 3.12 (≈ 5.86 µM) | 3.12 (≈ 5.86 µM) | 
7 | CC(=O)OCC1=C(C(=O)O)N2C(=O)C(NC(=O)C(=C(Cl)Cl)c3ccc(NC(=O)OC(C)(C)C)cc3)C2SC1 (stereo not drawn) [4-(1), 7-[2-dichloromethylene-2-(4-tert-butoxycarbonyl-aminophenyl)acetamido]-3-acetoxymethyl-3-cephem-4-carboxylic acid] | 6.25 (≈ 10.7 µM) | > 100 | > 100 | > 100 | 0.39 (≈ 0.665 µM) | > 100 | 6.25 (≈ 10.7 µM) | > 100 | > 100 | > 100 | > 100 | 50 (≈ 85.3 µM) | > 100 | 6.25 (≈ 10.7 µM) | 6.25 (≈ 10.7 µM) | 
8 | CC(=O)OCC1=C(C(=O)O)N2C(=O)C(NC(=O)C(=C(Cl)Cl)c3ccc(C)cc3)[C@H]2SC1 (stereo partly drawn) [Compound 28, 7-[2-dichloromethylene-2-(4-methylphenyl)acetamido]-3-acetoxymethyl-3-cephem-4-carboxylic acid] | 3.12 (≈ 6.44 µM) | 100 (≈ 206 µM) | > 100 | > 100 | > 100 | > 100 | 6.25 (≈ 12.9 µM) | > 100 | > 100 | > 100 | > 100 | 50 (≈ 103 µM) | > 100 | > 100 | 3.12 (≈ 6.44 µM) | 
9 | CC(=O)OCC1=C(C(=O)O)N2C(=O)C(NC(=O)C(=C(Cl)Cl)c3csc(N)n3)[C@H]2SC1 (stereo partly drawn) [5-(2), 7-[2-dichloromethylene-2-(2-aminothiazol-4-yl)acetamido]-3-acetoxymethyl-3-cephem-4-carboxylic acid] | < 0.025 | 0.2 (≈ 0.405 µM) | 25 (≈ 50.7 µM) | 6.25 (≈ 12.7 µM) | 1.56 (≈ 3.16 µM) | 6.25 (≈ 12.7 µM) | 12.5 (≈ 25.3 µM) | 12.5 (≈ 25.3 µM) | 1.56 (≈ 3.16 µM) | 6.25 (≈ 12.7 µM) | 50 (≈ 101 µM) | 6.25 (≈ 12.7 µM) | 12.5 (≈ 25.3 µM) | 0.1 (≈ 0.203 µM) | 12.5 (≈ 25.3 µM) | 
10 | CSc1nnc(SCC2=C(C(=O)[O-])N3C(=O)C(NC(=O)C(=CCl)c4csc(N)n4)[C@H]3SC2)s1.[Na+] (stereo partly drawn) [Compound 21, 7-[2-chloromethylene-2-(2-aminothiazol-4-yl)acetamido]-3-(2-methylthio-1,3,4-thiadiazol-5-yl)thiomethyl-3-cephem-4-carboxylic acid sodium salt] |  |  |  |  |  |  |  |  |  |  |  |  |  |  |  | MIC (Proteus rettgeri NIH-96; NIH96, read-out: minimum inhibition concentration, strain I: Proteus rettgeri NIH-96): < 0.00625 µg/mL; MIC (Proteus vulgaris OX-19; OX19, read-out: minimum inhibition concentration, strain H: Proteus vulgaris OX-19): 0.025 µg/mL; MIC (Proteus morgani Kono): 0.78 µg/mL; MIC [1]: 3.12 µg/mL; MIC ([2]; ATCC6633, read-out: minimum inhibition concentration, strain B: Bacillus subtilis ATCC 6633): 3.12 µg/mL; MIC ([3]; Staphylococcus aureus, 6538P, read-out: minimum inhibition concentration, strain A: Staphylococcus aureus 6538-P): 0.2 µg/mL; MIC (Klebsiella pneumoniae; read-out: minimum inhibition concentration, strain C: Klebsiella pneumoniae): 3.12 µg/mL; MIC (Serratia marcescens 1023; Serratia marcescens, 1023, read-out: minimum inhibition concentration, strain E: Serratia marcescens 1023): 3.12 µg/mL; MIC (Escherichia coli NIHJC-2; NIHJC2, read-out: minimum inhibition concentration): 1.56 µg/mL; MIC [4]: 0.39 µg/mL; MIC ([5]; read-out: minimum inhibition concentration, strain D: Salmonella typhimurium 3173): 3.12 µg/mL; MIC ([6]; IFO3736, read-out: minimum inhibition concentration): 3.12 µg/mL; MIC ([7]; NCTC10490, read-out: minimum inhibition concentration): 6.25 µg/mL; MIC ([8]; read-out: minimum inhibition concentration, strain G: Proteus mirabillis B-30-2 IFO-3849): 1.56 µg/mL; MIC (Escherichia coli NIHJ): < 0.00625 µg/mL
11 | CC(=O)OCC1=C(C(=O)O)N2C(=O)C(NC(=O)C(=C(Cl)Cl)c3ccc(O)cc3)[C@H]2SC1 (stereo partly drawn) [Compound 2, 7-[2-dichloromethylene-2-(4-hydroxyphenyl)acetamido]-3-acetoxymethyl-3-cephem-4-carboxylic acid] | 0.2 (≈ 0.41 µM) | 6.25 (≈ 12.8 µM) | > 100 | > 100 | 0.39 (≈ 0.8 µM) | > 100 | 6.25 (≈ 12.8 µM) | > 100 | > 100 | 100 (≈ 205 µM) | > 100 | 6.25 (≈ 12.8 µM) | > 100 | 0.39 (≈ 0.8 µM) | 3.12 (≈ 6.41 µM) | 
